Reference: patent US20230067811A1, “MODULATING LYMPHATIC VESSELS IN NEUROLOGICAL DISEASE” (University of Virginia Patent Foundation, priority 2020, published 2023)

How the values were obtained:
5×FAD mice = assay: ABETA Mab1 i.p. in 5×FAD mice with intact or ablated meningeal lymphatics: Aβ plaques, LAMP1, IBA1, CD68, fibrinogen; format: in vivo, mouse
Procedure: Upon recovery, mice received intraperitoneal (i.p.) injections of ABETA Mab1 (a murine antibody against Aβ protofibrils) or the control murine IgG (mIgG) antibodies, each at a dose of 40 mg/kg. Antibodies were injected weekly for a total of four weeks. Additional steps of meningeal lymphatic vessel ablation or control interventions were followed by four weekly injections with antibodies. Mice were tested in the open field and Morris water maze.
In another set of experiment 5×FAD mice of 3-3.5 months-old were injected (i.p.) with anti-Abeta antibody (ABETA Mab1) or mIgG (each at 40 mg/kg) following the exact same treatment regimen (FIG. 10A).
Treatments with anti-Aβ monoclonal antibodies. ABETA Mab1 and respective control IgG2a (mIgG) antibodies were manufactured by Absolute Antibody Ltd., Oxford Centre for Innovation, United Kingdom. Anti-Aβ monoclonal antibodies and respective mIgG controls were administered via intraperitoneal (i.p.) injection, at a dose of 40 mg/kg. Antibody dosages are also specified in the main text, illustrated in schemes and in each figure legend. Alternatively, ABETA Mab1 and mIgG antibodies were injected directly into the CSF, following the methodology described in the next section.
Meningeal lymphatic vessel ablation. Selective ablation of the meningeal lymphatic vessels was achieved by injection of Visudyne (Vis.) and consecutive transcranial photoconversion (photo.) steps following previously described methodology and regimens (Da Mesquita, S. et al. Functional aspects of meningeal lymphatics in ageing and Alzheimer's disease. Nature 560, 185-191, (2018); Louveau, A. et al. CNS lymphatic drainage and neuroinflammation are regulated by meningeal lymphatic vasculature. Nat Neurosci 21, 1380-1391, (2018)). Visudyne was reconstituted following manufacturer instructions, aliquoted and kept at −20° C. until further used. […] Each spot was irradiated with a light dose of 50 J/cm^2 at an intensity of 600 mW/cm^2 for a total of 83 s. […]
Immunohistochemistry, imaging and quantifications. […]

WT mice = assay: In vivo measurement of CSF outflow into dCLNs (fluorescent microspheres); design: species or system mouse; conditions: 1 week after photoablation
Procedure: Adult 2 months-old WT mice were injected (i.c.m.) with Visudyne (5 μL) followed by a transcranial photoconversion step (Vis./photo.) to ablate meningeal lymphatic vessels. Control mice were injected with Visudyne without photoconversion (Vis.). One week later, mice were injected with 5 μL of a suspension of fluorescent microspheres (1 μm in diameter) into the CSF and 15 minutes later the lymphatic vessel afferent to the deep cervical lymph node (dCLN) was imaged by in vivo stereomicroscopy. Representative images of skull cap show microspheres and lymphatic vessels stained for LYVE-1 around the confluence of sinuses (COS) and transverse sinus (TS) at the dorsal brain meninges or around the sigmoid (SS) and petrosquamosal (PSS) sinuses at the basal brain meninges (scale bars, 500 μm). […]
In vivo measurement of CSF outflow into dCLNs. […] Fluorescent microsphere drainage was analyzed in FIJI software by drawing a line demarcating the draining lymphatic vessel afferent to the dCLN and manually counting the beads passing the line by a blinded experimenter. […]

[1] = 5×FAD mice with reduced meningeal lymphatic drainage

Substance: verteporfin [Visudyne]
- brain coverage by LAMP1+ dystrophic neurites (5×FAD mice; 5×FAD mice with dysfunctional versus intact meningeal lymphatics): significantly increased
- fibrinogen levels in the brain (5×FAD mice; [1]): increased fibrinogen levels
- myeloid cell activation (IBA1+ coverage, peri-Aβ plaque IBA1+ cells, CD68 on IBA1+ cells) (5×FAD mice; [1]): aberrant activation of myeloid cells
- CSF drainage (microspheres from the CSF into the dCLNs) (WT mice): significant reduction
